Reference: ChEMBL document CHEMBL1201862, “PubChem BioAssay data set” (2004)
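Protocol summary: plate cells (96-well), add compound at 5 concentrations, incubate 48 h, interpolate endpoints linearly. GI50 = concentration required for 50% inhibition of growth.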 The source made the active and inactive calls. No stated cut-off is given here; in the data, active = GI50 up to about 1.1 µM and inactive = higher.

How the values were obtained:
Assay in all cases: growth of human tumour cells (NCI), 48 h
MCF7 = test system: MCF7
SR = test system: SR
OVCAR-4 = test system: OVCAR-4
PC-3 = test system: PC-3
DU-145 = test system: DU-145
NCI/ADR-RES = test system: NCI/ADR-RES
MDA-MB-435 = test system: MDA-MB-435
M14 = test system: M14
HCC 2998 = test system: HCC 2998
BT-549 = test system: BT-549
OVCAR-5 = test system: OVCAR-5
HCT-116 = test system: HCT-116
RXF 393 = test system: RXF 393
HOP-62 = test system: HOP-62
ACHN = test system: ACHN
A549 = test system: A549
NCI-H522 = test system: NCI-H522
KM-20L2 = test system: KM-20L2
SNB-78 = test system: SNB-78
DMS-114 = test system: DMS-114

SMILES | GI50 (MCF7) | GI50 (SR) | GI50 (OVCAR-4) | GI50 (PC-3) | GI50 (DU-145) | GI50 (NCI/ADR-RES) | GI50 (MDA-MB-435) | GI50 (M14) | GI50 (HCC 2998) | GI50 (BT-549) | GI50 (OVCAR-5) | GI50 (HCT-116) | GI50 (RXF 393) | GI50 (HOP-62) | GI50 (ACHN) | GI50 (A549) | GI50 (NCI-H522) | GI50 (KM-20L2) | GI50 (SNB-78) | GI50 (DMS-114)
OC(c1ccc(Cl)cc1)(c1ccc(Cl)cc1)c1cncnc1 | 25.9 µM (inactive) | 31.7 µM (inactive) | 14.7 µM (inactive) | 12.9 µM (inactive) | 24.6 µM (inactive) | 26.4 µM (inactive) | 18.3 µM (inactive) | 16.7 µM (inactive) | > 10 µM (inactive) | 19.2 µM (inactive) | 18.9 µM (inactive) | 14.3 µM (inactive) | 13.4 µM (inactive) | 18.6 µM (inactive) | – | – | – | – | – | –
O=S(=O)(O)c1ccc(-c2c3nc(c(-c4ccc(S(=O)(=O)O)cc4)c4ccc([nH]4)c(-c4ccc(S(=O)(=O)O)cc4)c4nc(c(-c5ccc(S(=O)(=O)O)cc5)c5ccc2[nH]5)C=C4)C=C3)cc1 | > 100 µM (inactive) | 45.3 µM (inactive) | 29 µM (inactive) | > 100 µM (inactive) | 39.1 µM (inactive) | 90.6 µM (inactive) | 61 µM (inactive) | > 100 µM (inactive) | – | 28 µM (inactive) | 53.5 µM (inactive) | > 100 µM (inactive) | 26.9 µM (inactive) | > 100 µM (inactive) | 45.7 µM (inactive) | 55.6 µM (inactive) | 47.3 µM (inactive) | – | – | –
NC(CCOCCP(=O)(O)O)C(=O)O (stereo not given) | > 100 µM (inactive) | > 100 µM (inactive) | > 100 µM (inactive) | > 100 µM (inactive) | > 100 µM (inactive) | > 100 µM (inactive) | > 100 µM (inactive) | > 100 µM (inactive) | > 100 µM (inactive) | > 100 µM (inactive) | > 100 µM (inactive) | > 100 µM (inactive) | > 100 µM (inactive) | – | > 100 µM (inactive) | > 100 µM (inactive) | > 100 µM (inactive) | – | – | –
CC(SC1=CC(=O)c2c(Cl)ccc(O)c2C1=O)C(=O)O (stereo not given) | – | 6.56 µM (inactive) | – | – | – | – | – | – | 21.3 µM (inactive) | – | – | 17.8 µM (inactive) | > 10 µM (inactive) | – | – | 22.4 µM (inactive) | – | 74.6 µM (inactive) | 12.6 µM (inactive) | 18.2 µM (inactive)
O=c1[nH]nc(NCc2ccccc2)c2nnn(Cc3ccccc3)c12 | > 100 µM (inactive) | > 100 µM (inactive) | > 100 µM (inactive) | > 100 µM (inactive) | > 100 µM (inactive) | > 100 µM (inactive) | > 100 µM (inactive) | > 100 µM (inactive) | > 100 µM (inactive) | > 100 µM (inactive) | > 100 µM (inactive) | > 100 µM (inactive) | – | > 100 µM (inactive) | > 100 µM (inactive) | > 100 µM (inactive) | – | – | – | –
CCOC(=O)/C(=C\NC#N)c1nc2ccccc2[nH]1 | > 100 µM (inactive) | 52.7 µM (inactive) | > 100 µM (inactive) | – | > 100 µM (inactive) | > 100 µM (inactive) | > 100 µM (inactive) | > 100 µM (inactive) | > 100 µM (inactive) | > 100 µM (inactive) | > 100 µM (inactive) | > 100 µM (inactive) | > 100 µM (inactive) | > 100 µM (inactive) | 30.2 µM (inactive) | > 100 µM (inactive) | 68.5 µM (inactive) | – | – | –
CC1C(O)[C@@]2(OC[C@@]34C(=O)CC5(O)[C@H](CCC6Cc7nc8c(nc7C[C@]65C)CC5CC[C@@H]6C7=C[C@H]9O[C@@]%10(O[C@@](C)(CO)C[C@@H]%10O)C(C)[C@@]9(O)[C@]7(C)[C@@H](O)CC6[C@]5(C)C8)C3=CC[C@H]4C2C)OC1(C)C (stereo not given in full) | < 0.000355 µM (active) | – | 0.604 µM (active) | – | – | > 3.55 µM (inactive) | – | – | 0.548 µM (active) | – | 0.00211 µM (active) | 0.000776 µM (active) | < 0.000355 µM (active) | < 0.000355 µM (active) | – | < 0.000355 µM (active) | 0.00308 µM (active) | 0.000796 µM (active) | 0.00146 µM (active) | < 0.000355 µM (active)
Nc1nc(=O)[nH][nH]1 | > 100 µM (inactive) | – | > 100 µM (inactive) | – | – | > 100 µM (inactive) | – | – | > 100 µM (inactive) | – | > 100 µM (inactive) | > 100 µM (inactive) | > 100 µM (inactive) | > 100 µM (inactive) | – | > 100 µM (inactive) | > 100 µM (inactive) | > 100 µM (inactive) | > 100 µM (inactive) | > 100 µM (inactive)
CN(C)CCNC(=O)Cn1ccc(=O)c2ccc([N+](=O)[O-])cc21 | > 100 µM (inactive) | > 100 µM (inactive) | 17.5 µM (inactive) | > 100 µM (inactive) | > 100 µM (inactive) | > 100 µM (inactive) | > 100 µM (inactive) | > 100 µM (inactive) | > 100 µM (inactive) | – | > 100 µM (inactive) | > 100 µM (inactive) | > 100 µM (inactive) | > 100 µM (inactive) | > 100 µM (inactive) | > 100 µM (inactive) | > 100 µM (inactive) | – | – | –
CCOC(=O)C(=CNC(Cc1c[nH]c2ccccc12)C(=O)OC)C(=O)OCC (stereo not given) | – | – | – | – | – | – | – | > 100 µM (inactive) | – | – | – | – | – | < 0.01 µM (active) | > 100 µM (inactive) | – | > 100 µM (inactive) | > 100 µM (inactive) | > 100 µM (inactive) | > 100 µM (inactive)
Cc1n[nH]c(N)c1C(N)=O | – | – | > 100 µM (inactive) | – | – | – | – | > 100 µM (inactive) | > 100 µM (inactive) | – | > 100 µM (inactive) | – | 21.5 µM (inactive) | – | > 100 µM (inactive) | > 100 µM (inactive) | > 100 µM (inactive) | > 100 µM (inactive) | > 100 µM (inactive) | > 100 µM (inactive)
C[Si](C)(OCCS(=O)(=O)O)C1(Cc2cccc3ccccc23)S(=O)(=O)OCCOS1(=O)=O | 19.4 µM (inactive) | – | 20.7 µM (inactive) | 19 µM (inactive) | 19.6 µM (inactive) | 33.7 µM (inactive) | 18.6 µM (inactive) | 17.7 µM (inactive) | 16.5 µM (inactive) | 18.5 µM (inactive) | 18.7 µM (inactive) | 18.5 µM (inactive) | – | 19.6 µM (inactive) | 18.1 µM (inactive) | 23 µM (inactive) | 13.7 µM (inactive) | – | – | –
C#CCOc1c(C(=O)OCC)c(=O)n(C)c2ccccc12 | – | – | – | – | – | – | – | > 100 µM (inactive) | – | – | – | – | – | < 0.01 µM (active) | > 100 µM (inactive) | – | > 100 µM (inactive) | > 100 µM (inactive) | > 100 µM (inactive) | > 100 µM (inactive)
N=S(=O)(c1ccccc1)c1ccccc1 | – | > 100 µM (inactive) | > 100 µM (inactive) | – | – | – | – | > 100 µM (inactive) | > 100 µM (inactive) | – | > 100 µM (inactive) | > 100 µM (inactive) | – | > 100 µM (inactive) | > 100 µM (inactive) | > 100 µM (inactive) | > 100 µM (inactive) | > 100 µM (inactive) | > 100 µM (inactive) | > 100 µM (inactive)
